Test results from article PMC3628110, “Mechanism for priming DNA synthesis by yeast DNA Polymerase α” (eLife, 2013).

Legend:
[1] = target: T1, Pol α (catalytic core, 349–1258) (Saccharomyces cerevisiae, UniProt P13382, R508A/N509A/D998N); test: primer extension assay, denaturing gel; type: biochemical; settings: labelled compound ([α-32P]dATP); poly(dT) 70mer template; up to 10 μM protein; 90 s
T1 construct: gene POL1; catalytic core, residues 349-1258 (910 aa); N-terminal dual His/Strep tag, TEV-cleaved; E. coli BL21(DE3)Rosetta2
T1 sequence (P13382 349-1258 R508A/N509A/D998N): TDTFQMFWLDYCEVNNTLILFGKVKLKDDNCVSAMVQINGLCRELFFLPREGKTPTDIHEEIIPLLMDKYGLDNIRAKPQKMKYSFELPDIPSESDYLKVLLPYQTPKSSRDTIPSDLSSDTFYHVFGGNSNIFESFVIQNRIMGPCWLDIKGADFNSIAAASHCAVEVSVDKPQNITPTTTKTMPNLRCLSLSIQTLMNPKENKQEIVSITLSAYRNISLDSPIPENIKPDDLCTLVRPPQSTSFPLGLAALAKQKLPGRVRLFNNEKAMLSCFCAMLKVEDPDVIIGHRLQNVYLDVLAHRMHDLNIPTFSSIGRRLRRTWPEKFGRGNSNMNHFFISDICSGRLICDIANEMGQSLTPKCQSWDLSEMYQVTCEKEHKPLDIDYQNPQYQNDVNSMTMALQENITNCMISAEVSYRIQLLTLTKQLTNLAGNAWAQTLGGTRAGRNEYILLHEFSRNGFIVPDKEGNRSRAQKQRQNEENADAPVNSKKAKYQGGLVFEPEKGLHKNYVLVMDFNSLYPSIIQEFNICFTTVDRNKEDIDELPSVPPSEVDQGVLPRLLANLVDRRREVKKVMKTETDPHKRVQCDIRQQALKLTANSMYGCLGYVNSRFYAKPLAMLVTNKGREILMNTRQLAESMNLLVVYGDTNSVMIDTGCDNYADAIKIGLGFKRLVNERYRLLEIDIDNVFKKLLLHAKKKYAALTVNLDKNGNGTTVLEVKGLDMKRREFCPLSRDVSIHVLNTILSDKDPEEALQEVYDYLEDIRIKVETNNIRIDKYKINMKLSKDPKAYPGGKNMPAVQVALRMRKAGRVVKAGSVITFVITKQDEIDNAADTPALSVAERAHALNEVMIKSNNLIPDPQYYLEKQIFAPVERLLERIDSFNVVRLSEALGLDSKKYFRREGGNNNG

[2] = target: T1, Pol α (catalytic core, 349–1258); test: X-ray crystal structure of ternary complex, […] Å; type: binding; settings: RNA 10mer primer/DNA 25mer template; 5 mM dGTP; 200 mM Mg acetate; polymerase active site; primer extended by dGMP during crystallization (mass spectrometry)
[3] = target: T2, DNA polymerase alpha catalytic core (Pol α), R508A N509A D998N (Saccharomyces cerevisiae, UniProt P13382 349-1258, R508A;N509A;D998N); test: X-ray crystallography (3.1 Å); dGTP (5 mM) bound in active site; 200 mM Mg acetate; Crystals only: binary 0.1 M Bicine pH 8.0, 12% PEG 3350, 10 mM MgCl2, 18 °C; ternary 200 mM Mg acetate, 10% PEG 8000, 5 mM dGTP, micro-batch (3% glycerol). Primer extension assays are turnover only and not listed.; settings: protein: recombinant; tags: N-terminal dual His/streptavidin tag, TEV-cleaved; 5' overhang 13 nt on template after extension (15 nt before); 12 bp
T2 sequence: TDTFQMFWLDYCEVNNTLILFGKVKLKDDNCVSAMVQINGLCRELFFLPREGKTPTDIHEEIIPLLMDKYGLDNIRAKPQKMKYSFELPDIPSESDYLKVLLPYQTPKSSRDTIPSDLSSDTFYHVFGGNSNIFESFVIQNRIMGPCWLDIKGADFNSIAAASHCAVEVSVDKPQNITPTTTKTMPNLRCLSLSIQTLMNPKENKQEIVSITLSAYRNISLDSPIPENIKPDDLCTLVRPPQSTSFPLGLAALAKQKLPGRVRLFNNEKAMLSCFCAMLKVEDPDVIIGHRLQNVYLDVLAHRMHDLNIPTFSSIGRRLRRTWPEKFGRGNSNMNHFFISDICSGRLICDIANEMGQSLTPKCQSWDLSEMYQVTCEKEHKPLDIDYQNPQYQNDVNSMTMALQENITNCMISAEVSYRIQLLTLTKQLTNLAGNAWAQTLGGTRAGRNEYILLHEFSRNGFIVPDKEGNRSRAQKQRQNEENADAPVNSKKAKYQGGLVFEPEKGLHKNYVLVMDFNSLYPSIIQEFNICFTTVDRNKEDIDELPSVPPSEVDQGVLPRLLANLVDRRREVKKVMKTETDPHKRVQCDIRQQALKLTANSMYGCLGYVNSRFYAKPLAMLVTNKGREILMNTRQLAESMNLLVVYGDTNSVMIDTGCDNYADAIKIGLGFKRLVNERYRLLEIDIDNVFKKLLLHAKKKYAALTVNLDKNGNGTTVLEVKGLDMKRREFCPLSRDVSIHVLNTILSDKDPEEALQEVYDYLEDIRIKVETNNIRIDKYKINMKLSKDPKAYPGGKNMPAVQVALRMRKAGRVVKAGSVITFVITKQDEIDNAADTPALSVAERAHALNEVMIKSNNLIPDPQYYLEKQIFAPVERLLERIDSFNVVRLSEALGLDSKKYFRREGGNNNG

[4] = target: T3, DNA polymerase alpha catalytic core (Pol α), wild type (Saccharomyces cerevisiae, UniProt P13382 349-1258); test: X-ray crystallography (3.0 Å); 10 mM MgCl2, 1 mM ddCTP in drop (no ddCTP density); Crystals only: binary 0.1 M Bicine pH 8.0, 12% PEG 3350, 10 mM MgCl2, 18 °C; ternary 200 mM Mg acetate, 10% PEG 8000, 5 mM dGTP, micro-batch (3% glycerol). Primer extension assays are turnover only and not listed.; settings: protein: recombinant; tags: N-terminal dual His/streptavidin tag, TEV-cleaved; 5' overhang 6 nt on template; 10 bp
T3 sequence: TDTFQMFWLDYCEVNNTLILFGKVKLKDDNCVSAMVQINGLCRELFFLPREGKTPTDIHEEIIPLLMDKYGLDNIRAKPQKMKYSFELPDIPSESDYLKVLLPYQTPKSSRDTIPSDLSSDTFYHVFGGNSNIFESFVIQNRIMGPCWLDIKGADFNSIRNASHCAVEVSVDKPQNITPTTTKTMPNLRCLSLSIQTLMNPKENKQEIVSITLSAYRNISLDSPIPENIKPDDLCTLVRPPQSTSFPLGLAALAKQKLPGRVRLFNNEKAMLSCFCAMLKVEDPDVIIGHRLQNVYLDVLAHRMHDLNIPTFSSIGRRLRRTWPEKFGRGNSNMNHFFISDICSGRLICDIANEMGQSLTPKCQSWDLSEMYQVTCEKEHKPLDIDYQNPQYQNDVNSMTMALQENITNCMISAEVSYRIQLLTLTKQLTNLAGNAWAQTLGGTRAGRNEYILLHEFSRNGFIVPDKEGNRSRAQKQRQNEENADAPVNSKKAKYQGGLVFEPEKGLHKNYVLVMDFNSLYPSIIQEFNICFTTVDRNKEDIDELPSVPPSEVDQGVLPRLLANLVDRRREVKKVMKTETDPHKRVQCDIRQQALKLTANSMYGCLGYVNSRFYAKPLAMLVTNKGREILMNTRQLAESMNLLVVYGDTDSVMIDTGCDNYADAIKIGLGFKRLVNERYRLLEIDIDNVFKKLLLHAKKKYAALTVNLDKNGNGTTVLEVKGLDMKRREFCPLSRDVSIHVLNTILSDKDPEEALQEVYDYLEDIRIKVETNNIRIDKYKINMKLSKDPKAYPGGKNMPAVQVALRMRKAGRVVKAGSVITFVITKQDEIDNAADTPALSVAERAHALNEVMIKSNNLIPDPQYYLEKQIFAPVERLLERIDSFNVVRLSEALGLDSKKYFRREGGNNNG

## Nc1ncnc2c1ncn2[C@H]1C[C@H](O)[C@@H](COP(=O)(O)OP(=O)(O)OP(=O)(O)O)O1 [dATP]
[1]
  primer extension assay, denaturing gel: Residual activity of the D998N R508A N509A Pol α mutant was demonstrated by the primer extension assay

## Nc1nc2c(ncn2[C@H]2C[C@H](O)[C@@H](COP(=O)(O)OP(=O)(O)OP(=O)(O)O)O2)c(=O)[nH]1 [dGTP]
[2]
  X-ray crystal structure of ternary complex, 3.1 Å: the R508A, N509A, D998N Pol α mutant was used

B1: RNA 10mer primer extended in crystal by two dG / DNA 25mer template (ternary complex) (DNA:RNA)
?: CGGCGGGCAGGG
DNA: TGAGCGTGTGTACCCCTGCCCGCCG
modifications: strand 1 is RNA 10mer (S5) plus two 3' deoxyguanosines; strand 2 DNA
[3]
  binding result: binds

B2: RNA 10mer primer / DNA 16mer template (binary complex) (DNA:RNA)
?: AGGCGGGCAG
DNA: TTTTCGCTGCCCGCCT
modifications: strand 1 RNA, strand 2 DNA
[4]
  binding result: binds
